Experimental findings from ChEMBL document CHEMBL1909046, “DrugMatrix in vitro pharmacology data” are described below.

The target of one series is D(3) dopamine receptor (Homo sapiens, UniProt P35462). The series can be described thus: DRUGMATRIX: Dopamine D3 radioligand binding (ligand: [3H] Spiperone). The format is cell membranes, CHO, Membrane.
A short description of series [1]: DRUGMATRIX: Glutamate, Kainate radioligand binding (ligand: [3H] Kainic acid). Format: cell membranes, Rattus norvegicus, Wistar, Brain, Membrane. The conditions noted are these: Not Active = under 50% inhibition at 10 µM.
A further series addresses Mu-type opioid receptor (Homo sapiens, UniProt P35372). The series can be described thus: DRUGMATRIX: Opiate mu (OP3, MOP) radioligand binding (ligand: [3H] Diprenorphine). Format: cell membranes, CHO-K1, Membrane. The conditions noted are these: cho-k1; Not Active = under 50% inhibition at 10 µM.
Series [2] is described as follows: DRUGMATRIX: Phosphodiesterase PDE3 enzyme inhibition (substrate: [3H]cAMP + cAMP). Format: tissue-based, Homo sapiens. To be noted: platelet; Not Active = under 50% inhibition at 10 µM.
The next series concerns the target T1, Interstitial collagenase (Homo sapiens, UniProt P03956).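 Note: MMP-1 enzyme inhibition assay using a peptide substrate; in other assays of this panel Not Active means under 50% inhibition at 10 µM.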
T1 sequence (P03956 whole entry): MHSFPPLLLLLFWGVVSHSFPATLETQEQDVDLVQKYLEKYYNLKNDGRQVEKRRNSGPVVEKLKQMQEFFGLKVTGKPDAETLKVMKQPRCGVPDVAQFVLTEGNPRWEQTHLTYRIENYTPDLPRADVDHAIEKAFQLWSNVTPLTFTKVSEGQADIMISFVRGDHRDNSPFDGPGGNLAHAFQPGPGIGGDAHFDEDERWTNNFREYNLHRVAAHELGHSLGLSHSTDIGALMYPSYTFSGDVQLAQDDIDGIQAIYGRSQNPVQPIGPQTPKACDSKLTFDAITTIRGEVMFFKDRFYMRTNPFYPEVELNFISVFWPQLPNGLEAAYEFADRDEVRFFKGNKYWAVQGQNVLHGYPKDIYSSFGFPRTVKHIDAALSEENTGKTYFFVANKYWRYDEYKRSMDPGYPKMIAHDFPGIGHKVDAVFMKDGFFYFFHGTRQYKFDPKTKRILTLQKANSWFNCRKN
In words: biochemical. The format is tissue-based, Rheumatoid synovial fibroblasts.

Series [3] has as its target T2, Receptor-type tyrosine-protein phosphatase C (Homo sapiens, UniProt P08575).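 Note: inhibition of CD45 enzyme activity measured using DiFMUP as substrate; in other assays of this panel Not Active means under 50% inhibition at 10 µM.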
T2 sequence (P08575 whole entry): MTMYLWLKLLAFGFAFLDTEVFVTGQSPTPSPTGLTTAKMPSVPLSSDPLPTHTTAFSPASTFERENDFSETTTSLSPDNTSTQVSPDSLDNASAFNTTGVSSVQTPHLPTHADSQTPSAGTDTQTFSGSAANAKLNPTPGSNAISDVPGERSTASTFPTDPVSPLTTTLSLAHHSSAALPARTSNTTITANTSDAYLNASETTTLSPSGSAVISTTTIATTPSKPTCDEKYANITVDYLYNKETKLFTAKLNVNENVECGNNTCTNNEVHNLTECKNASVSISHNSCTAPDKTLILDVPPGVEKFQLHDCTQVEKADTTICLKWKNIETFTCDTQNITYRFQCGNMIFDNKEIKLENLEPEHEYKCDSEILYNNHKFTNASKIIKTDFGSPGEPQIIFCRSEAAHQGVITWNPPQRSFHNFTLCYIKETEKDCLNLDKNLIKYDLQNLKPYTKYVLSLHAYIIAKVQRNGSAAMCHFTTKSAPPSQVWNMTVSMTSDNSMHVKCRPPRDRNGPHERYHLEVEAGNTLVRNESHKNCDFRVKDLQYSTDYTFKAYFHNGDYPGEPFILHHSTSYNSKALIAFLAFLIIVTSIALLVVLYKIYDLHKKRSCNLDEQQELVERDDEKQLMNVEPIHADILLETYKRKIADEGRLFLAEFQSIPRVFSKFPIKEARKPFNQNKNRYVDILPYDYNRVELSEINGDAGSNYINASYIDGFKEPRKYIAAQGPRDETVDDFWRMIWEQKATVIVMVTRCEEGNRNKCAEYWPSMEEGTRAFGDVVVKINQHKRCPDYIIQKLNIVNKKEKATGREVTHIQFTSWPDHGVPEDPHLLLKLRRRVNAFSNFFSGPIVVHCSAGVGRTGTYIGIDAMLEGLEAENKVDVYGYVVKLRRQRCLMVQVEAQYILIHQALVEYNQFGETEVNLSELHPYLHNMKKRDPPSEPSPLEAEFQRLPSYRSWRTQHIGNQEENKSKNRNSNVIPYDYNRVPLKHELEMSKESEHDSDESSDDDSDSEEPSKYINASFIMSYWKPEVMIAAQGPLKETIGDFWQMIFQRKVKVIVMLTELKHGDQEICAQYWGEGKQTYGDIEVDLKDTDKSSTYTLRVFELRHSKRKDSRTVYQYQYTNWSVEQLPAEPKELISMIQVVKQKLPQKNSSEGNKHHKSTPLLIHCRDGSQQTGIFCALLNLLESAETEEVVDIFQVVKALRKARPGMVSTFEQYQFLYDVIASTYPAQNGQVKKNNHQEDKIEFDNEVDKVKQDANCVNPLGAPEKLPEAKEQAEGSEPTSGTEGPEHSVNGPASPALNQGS
Also noted: species or system Escherichia coli.

Another series deals with Cytochrome P450 2C9 (Homo sapiens, UniProt P11712). The conditions noted are these: bti-tn-5b1-4.
Chain of Cytochrome P450 2C9 (P11712 whole entry): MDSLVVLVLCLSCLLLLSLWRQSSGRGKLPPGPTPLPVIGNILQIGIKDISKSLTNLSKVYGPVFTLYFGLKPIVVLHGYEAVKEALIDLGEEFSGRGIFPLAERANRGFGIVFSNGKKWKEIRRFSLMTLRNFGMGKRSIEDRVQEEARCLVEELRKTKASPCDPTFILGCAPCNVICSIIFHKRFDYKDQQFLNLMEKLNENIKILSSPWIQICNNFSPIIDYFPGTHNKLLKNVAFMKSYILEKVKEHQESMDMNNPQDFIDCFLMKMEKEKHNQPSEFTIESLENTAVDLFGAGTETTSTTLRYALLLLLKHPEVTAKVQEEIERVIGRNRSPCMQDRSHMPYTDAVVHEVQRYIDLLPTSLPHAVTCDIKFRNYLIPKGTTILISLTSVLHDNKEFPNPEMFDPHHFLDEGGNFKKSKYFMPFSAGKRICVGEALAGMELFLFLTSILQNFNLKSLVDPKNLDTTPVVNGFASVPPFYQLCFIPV

Chain of D(3) dopamine receptor (P35462 whole entry): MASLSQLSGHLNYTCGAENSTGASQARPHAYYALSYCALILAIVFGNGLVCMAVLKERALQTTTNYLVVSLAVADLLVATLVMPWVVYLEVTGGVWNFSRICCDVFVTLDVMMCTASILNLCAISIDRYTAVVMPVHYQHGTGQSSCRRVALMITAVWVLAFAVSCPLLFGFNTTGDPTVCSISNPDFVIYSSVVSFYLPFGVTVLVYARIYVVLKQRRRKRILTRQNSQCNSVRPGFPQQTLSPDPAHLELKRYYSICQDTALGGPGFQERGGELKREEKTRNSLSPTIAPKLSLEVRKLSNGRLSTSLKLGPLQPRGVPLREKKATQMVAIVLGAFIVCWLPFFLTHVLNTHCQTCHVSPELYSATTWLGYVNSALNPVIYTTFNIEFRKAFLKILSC
Chain of Mu-type opioid receptor (P35372 whole entry): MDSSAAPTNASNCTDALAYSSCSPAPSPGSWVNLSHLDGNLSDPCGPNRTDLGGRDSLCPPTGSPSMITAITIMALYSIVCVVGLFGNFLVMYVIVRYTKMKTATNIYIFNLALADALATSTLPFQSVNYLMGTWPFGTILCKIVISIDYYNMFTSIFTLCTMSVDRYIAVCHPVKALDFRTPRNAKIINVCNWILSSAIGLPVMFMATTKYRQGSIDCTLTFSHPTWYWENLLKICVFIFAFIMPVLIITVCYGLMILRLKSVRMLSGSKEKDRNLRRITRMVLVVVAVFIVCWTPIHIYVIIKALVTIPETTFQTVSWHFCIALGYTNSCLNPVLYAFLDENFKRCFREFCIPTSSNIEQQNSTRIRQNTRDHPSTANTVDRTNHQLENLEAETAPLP

For `Oc1cccc(O)c1O` [PYROGALLOL], the 50% inhibitory concentration (IC50) entry (on D(3) dopamine receptor (cho); in series [1]; at Mu-type opioid receptor; in series [2]; on Interstitial collagenase; in series [3]) was “Not Active” each time. Further, on Cytochrome P450 2C9, the IC50 entry is given as “Not Active”. Further, the Ki result (in series [1]; in series [2]; on Cytochrome P450 2C9) was “Not Active” throughout.

Turning to `COc1cc2nc(N3CCN(C(=O)c4ccco4)CC3)nc(N)c2cc1OC` [PRAZOSIN], the IC50 result at D(3) dopamine receptor (cho) is “Not Active”; in series [1], “Not Active”; on Mu-type opioid receptor, “Not Active”; in series [2], “Not Active”; on Interstitial collagenase (read-out: IC50) it was 4040 nM; in series [3], “Not Active”. Further, the IC50 entry at Cytochrome P450 2C9 is “Not Active”. The Ki result (in series [1]; in series [2]; on Cytochrome P450 2C9) was “Not Active” in each case.

As to `NNc1nncc2ccccc12` [HYDRALAZINE], the half-maximal inhibitory concentration (IC50) entry (at D(3) dopamine receptor (cho); in series [1]; on Mu-type opioid receptor; in series [2]; against Interstitial collagenase; in series [3]) was “Not Active” throughout. Further, on Cytochrome P450 2C9, the IC50 result was “Not Active”. In addition, the Ki result (in series [1]; in series [2]; at Cytochrome P450 2C9) was “Not Active” each time.

Turning to `C[C@]12C=CC(=O)C=C1CC[C@@H]1[C@@H]2[C@@H](O)C[C@@]2(C)[C@H]1CC[C@]2(O)C(=O)CO` [PREDNISOLONE], the IC50 result (on D(3) dopamine receptor (cho); in series [1]; on Mu-type opioid receptor; in series [2]; against Interstitial collagenase; in series [3]) was “Not Active” throughout. For the same molecule, the IC50 result at Cytochrome P450 2C9 is reported as “Not Active”. In addition, the Ki entry (in series [1]; in series [2]; on Cytochrome P450 2C9) was “Not Active” each time.

On to `O=C1O[C@H]([C@@H](O)CO)C(O)=C1O` [ASCORBIC ACID], for which the half-inhibitory concentration (IC50) entry (at D(3) dopamine receptor (cho); in series [1]; on Mu-type opioid receptor; in series [2]; at Interstitial collagenase; in series [3]) was “Not Active” throughout. For the same molecule, at Cytochrome P450 2C9, the IC50 result is recorded as “Not Active”. The Ki result (in series [1]; in series [2]; at Cytochrome P450 2C9) was “Not Active” throughout.

Regarding `C[n+]1ccccc1/C=N/O.[Cl-]` [PRALIDOXIME CHLORIDE], the IC50 entry (on D(3) dopamine receptor (cho); in series [1]; at Mu-type opioid receptor; in series [2]; on Interstitial collagenase; in series [3]) was “Not Active” each time. For the same molecule, the IC50 entry at Cytochrome P450 2C9 is reported as “Not Active”. In addition, the Ki result (in series [1]; in series [2]; at Cytochrome P450 2C9) was “Not Active” each time.

On to `CCC1(CCC(C)C)C(=O)NC(=O)NC1=O` [AMOBARBITAL], for which the IC50 result (on D(3) dopamine receptor (cho); in series [1]; on Mu-type opioid receptor; in series [2]; at Interstitial collagenase; in series [3]) was “Not Active” each time. Further, at Cytochrome P450 2C9, the IC50 result was “Not Active”. The Ki result (in series [1]; in series [2]; at Cytochrome P450 2C9) was “Not Active” in each case.

In the case of `COc1ccc2[nH]cc(CCNC(C)=O)c2c1` [MELATONIN], the IC50 entry (at D(3) dopamine receptor (cho); in series [1]; at Mu-type opioid receptor; in series [2]; at Interstitial collagenase; in series [3]) was “Not Active” in each case. The IC50 result against Cytochrome P450 2C9 is recorded as “Not Active”. Also, the Ki result (in series [1]; in series [2]; at Cytochrome P450 2C9) was “Not Active” throughout.

Take `CN(C)CC[C@@H](c1ccc(Cl)cc1)c1ccccn1` [DEXCHLORPHENIRAMINE]: the IC50 entry (on D(3) dopamine receptor (cho); in series [1]; at Mu-type opioid receptor; in series [2]; at Interstitial collagenase; in series [3]) was “Not Active” each time. For the same molecule, on Cytochrome P450 2C9, the IC50 entry is recorded as “Not Active”. In addition, the Ki entry (in series [1]; in series [2]; at Cytochrome P450 2C9) was “Not Active” in each case.

Turning to `COc1ccc2cc3[n+](cc2c1OC)CCc1cc2c(cc1-3)OCO2.[Cl-]` [BERBERINE CHLORIDE], the IC50 entry (on D(3) dopamine receptor (cho); in series [1]; on Mu-type opioid receptor; in series [2]; against Interstitial collagenase; in series [3]) was “Not Active” each time. At Cytochrome P450 2C9, the IC50 entry was “Not Active”. For the same molecule, the Ki result (in series [1]; in series [2]; on Cytochrome P450 2C9) was “Not Active” each time.

For `OC(CCCN1CCCCC1)(c1ccccc1)c1ccccc1` [DIPHENIDOL], the IC50 is 2310 nM at D(3) dopamine receptor (read-out: IC50); “Not Active” in series [1]; “Not Active” at Mu-type opioid receptor; “Not Active” in series [2]; “Not Active” at Interstitial collagenase; “Not Active” in series [3]. Besides, the IC50 result against Cytochrome P450 2C9 was “Not Active”. Besides, the Ki is 785 nM at D(3) dopamine receptor (read-out: Ki), “Not Active” in series [1], “Not Active” in series [2] and “Not Active” at Cytochrome P450 2C9.

For `CC(=O)O[C@H]1C(=O)[C@@]2(C)[C@H]([C@H](OC(=O)c3ccccc3)[C@]3(O)C[C@H](OC(=O)[C@H](O)[C@@H](NC(=O)c4ccccc4)c4ccccc4)C(C)=C1C3(C)C)[C@]1(OC(C)=O)CO[C@@H]1C[C@@H]2O` [PACLITAXEL], the IC50 result (at D(3) dopamine receptor (cho); in series [1]; at Mu-type opioid receptor; in series [2]; against Interstitial collagenase; in series [3]) was “Not Active” throughout. The IC50 entry against Cytochrome P450 2C9 is recorded as “Not Active”. The Ki result (in series [1]; in series [2]; at Cytochrome P450 2C9) was “Not Active” throughout.

As to `Cn1c(=O)c2c(ncn2CC(O)CO)n(C)c1=O` (stereo unspecified) [DYPHYLLINE], the IC50 entry (at D(3) dopamine receptor (cho); in series [1]; at Mu-type opioid receptor; in series [2]; against Interstitial collagenase; in series [3]) was “Not Active” throughout. For the same molecule, the IC50 result against Cytochrome P450 2C9 is given as “Not Active”. Besides, the Ki result (in series [1]; in series [2]; at Cytochrome P450 2C9) was “Not Active” in each case.

With `CN(C)[C@@H]1C(O)=C(C(N)=O)C(=O)[C@@]2(O)C(O)=C3C(=O)c4c(O)ccc(Cl)c4[C@@](C)(O)[C@H]3C[C@@H]12` [CHLORTETRACYCLINE], the IC50 result (on D(3) dopamine receptor (cho); in series [1]; on Mu-type opioid receptor; in series [2]; against Interstitial collagenase; in series [3]) was “Not Active” in each case. Besides, on Cytochrome P450 2C9, the IC50 result is listed as “Not Active”. Also, the Ki entry (in series [1]; in series [2]; on Cytochrome P450 2C9) was “Not Active” in each case.
